± gives the standard deviation of the averaged measurements.

A short description of the data set: TIMS collisional cross section (CCS, N2) of the lipid ion; higher = larger ion cross section. The note with it: ionization mode: negative, one isomer drawn. How it is done:
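Lipid extracts of human plasma (NIST SRM 1950), mouse liver or HeLa cells were separated by nanoflow C18 LC (30 min gradient) and analysed by TIMS-PASEF on a timsTOF Pro. Ion mobility was calibrated with the Agilent tuning mix (negative mode ions) and converted to collisional cross sections (Mason–Schamp, N2).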

Setting [1] is: sample type: Human plasma, ion (formula + adduct): [C46H82NO8P+HCOO] 1-.
Where [2] appears, read: sample type: Mouse Liver, ion (formula + adduct): [C48H84NO8P+HCOO] 1-.
The mark [3] stands for this setting: sample type: Mouse Liver, ion (formula + adduct): [C46H78NO8P-CH3] 1-.
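Also: lipids from MTBE extraction, five replicate injections per sample, 100 ms TIMS ramp spanning 0.6–1.95 Vs/cm², lipid identity assigned from PASEF MS/MS spectra.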

Regarding `CCCCCCCC/C=C\CCCCCCCC(=O)OC[C@H](COP(=O)([O-])OCC[N+](C)(C)C)OC(=O)CCCCCCCCCCCCCCCCCC` [PC 18:1_19:0], the “TIMS collisional cross section” value (sample type: Mouse Liver, ion (formula + adduct): [C45H88NO8P+HCOO] 1-) is listed as 299.5 Å².
Take `CCCCC/C=C\C/C=C\C/C=C\C/C=C\CCCC(=O)O[C@H](COC(=O)CCCCCCC/C=C\CCCCCCCC)COP(=O)([O-])OCC[N+](C)(C)C` [PC 18:1_20:4]: the “TIMS collisional cross section” value reads like this: under setting [1], 298.3 Å²; (sample type: Mouse Liver, ion (formula + adduct): [C46H82NO8P+HCOO] 1-) 297.7 Å².
Consider `CC/C=C\C/C=C\C/C=C\C/C=C\C/C=C\CCCCCC(=O)O[C@H](COC(=O)CCCCCCCCC/C=C\CCCCCC)COP(=O)([O-])OCC[N+](C)(C)C` [PC 18:1_22:5], for which the “TIMS collisional cross section” value runs as follows: (sample type: Human plasma, ion (formula + adduct): [C48H84NO8P+HCOO] 1-) 302.8 Å²; under setting [2], 302.2 Å².
Turning to `CCCCC/C=C\C/C=C\C/C=C\C/C=C\CCCCCC(=O)O[C@H](COC(=O)CCCCCCC/C=C\C/C=C\CCCCC)COP(=O)([O-])OCC[N+](C)(C)C` [PC 18:2@_22:4], the “TIMS collisional cross section” value under setting [2] was 301.7 Å².
On to `CCCCC/C=C/C=C\CCCCCCCC(=O)O[C@H](COC(=O)CCCCCCC/C=C\C/C=C/CCCCC)COP(=O)([O-])OCC[N+](C)(C)C` [PC 18:2_17:2], for which the “TIMS collisional cross section” value (sample type: Mouse Liver, ion (formula + adduct): [C43H78NO8P+HCOO] 1-) was determined as 289.3 Å².
Consider `CCCCCCCCCCCCC/C=C/C=C/C(=O)OC[C@H](COP(=O)([O-])OCC[N+](C)(C)C)OC(=O)/C=C/C=C/CCCCCCCCCCCCC` [PC 18:2_18:2], for which the “TIMS collisional cross section” value is given as 293.4 ± 0.35 Å² (sample type: Human plasma, ion (formula + adduct): [C44H80NO8P+HCOO] 1-) and 292.7 Å² (sample type: Mouse Liver, ion (formula + adduct): [C44H80NO8P+HCOO] 1-).
`CCCCC/C=C\C/C=C\CCCCCCCC(=O)OC[C@H](COP(=O)([O-])OCC[N+](C)(C)C)OC(=O)CCCCCCCCCCCCCCCCCC` [PC 18:2_19:0]: the “TIMS collisional cross section” value (sample type: Mouse Liver, ion (formula + adduct): [C45H86NO8P+HCOO] 1-) was found to be 299 Å².
Take `CCCCC/C=C\C/C=C\CCCCCCCCCC(=O)O[C@H](COC(=O)CCCCCCC/C=C\C/C=C\CCCCC)COP(=O)([O-])OCC[N+](C)(C)C` [PC 18:2_20:2]: the “TIMS collisional cross section” value (sample type: Human plasma, ion (formula + adduct): [C46H84NO8P+HCOO] 1-) is recorded as 299.5 Å².
Turning to `CCCCC/C=C\C/C=C\C/C=C\CCCCCCC(=O)O[C@H](COC(=O)CCCCCCC/C=C\C/C=C\CCCCC)COP(=O)([O-])OCC[N+](C)(C)C` [PC 18:2_20:3], the “TIMS collisional cross section” value under setting [1] was found to be 299.2 Å².
As to `CCCCC/C=C\C/C=C\C/C=C\C/C=C\CCCC(=O)O[C@H](COC(=O)CCCCCCC/C=C\C/C=C\CCCCC)COP(=O)([O-])OCC[N+](C)(C)C` [PC 18:2_20:4], the “TIMS collisional cross section” value came to 296.8 ± 0.92 Å² (sample type: Human plasma, ion (formula + adduct): [C46H80NO8P+HCOO] 1-) and 295.7 ± 0.42 Å² (sample type: Mouse Liver, ion (formula + adduct): [C46H80NO8P+HCOO] 1-).
For the compound `CC/C=C\C/C=C\C/C=C\C/C=C\C/C=C\CCCC(=O)O[C@H](COC(=O)CCCCCCC/C=C\C/C=C\CCCCC)COP(=O)([O-])OCC[N+](C)(C)C` [PC 18:2_20:5@], under setting [3], the “TIMS collisional cross section” value was 276.6 Å².
For the compound `CC/C=C\C/C=C\C/C=C\C/C=C\C/C=C\CCCC(=O)O[C@H](COC(=O)CCCCCCC/C=C\C/C=C\CCCCC)COP(=O)([O-])OCC[N+](C)(C)C` [PC 18:2_20:5], the “TIMS collisional cross section” value (sample type: Human plasma, ion (formula + adduct): [C46H78NO8P+HCOO] 1-) was 294.9 Å².
Regarding `CCCCC/C=C\C/C=C\C/C=C\C/C=C\CCCCCC(=O)O[C@H](COC(=O)CCCCCCC/C=C\C/C=C\CCCCC)COP(=O)([O-])OCC[N+](C)(C)C` [PC 18:2_22:4@], for the setting “sample type: Human plasma, ion (formula + adduct): [C48H84NO8P-CH3] 1-”, the “TIMS collisional cross section” value came to 303.8 Å².
In the case of `CCCCC/C=C\C/C=C\C/C=C\C/C=C\C/C=C\CCC(=O)O[C@H](COC(=O)CCCCCCC/C=C\C/C=C\CCCCC)COP(=O)([O-])OCC[N+](C)(C)C` [PC 18:2_22:5], the “TIMS collisional cross section” value (sample type: Mouse Liver, ion (formula + adduct): [C48H82NO8P+HCOO] 1-) is reported as 299.9 Å².
For the compound `CC/C=C\C/C=C\C/C=C\C/C=C\C/C=C\C/C=C\CCC(=O)O[C@H](COC(=O)CCCCCCC/C=C\C/C=C\CCCCC)COP(=O)([O-])OCC[N+](C)(C)C` [PC 18:2_22:6], the “TIMS collisional cross section” value was determined as 298.8 Å² (sample type: Human plasma, ion (formula + adduct): [C48H80NO8P+HCOO] 1-) and 298.8 Å² (sample type: Mouse Liver, ion (formula + adduct): [C48H80NO8P+HCOO] 1-).
For the compound `CCCCC/C=C\C/C=C\C/C=C\C/C=C\CCCC(=O)O[C@H](COC(=O)CCCC/C=C\C/C=C\C/C=C\CCCCC)COP(=O)([O-])OCC[N+](C)(C)C` [PC 18:3@_20:4], the “TIMS collisional cross section” value is, setting by setting: (sample type: Mouse Liver, ion (formula + adduct): [C46H78NO8P+HCOO] 1-) 296 Å²; under setting [3], 277.2 Å².

Values taken from the supplement of paper PMC6965134.
